Broadly, the IC50 is the midpoint of a concentration-inhibition curve. Broadly, the half-life is how long it takes for the measured level to halve. As a reminder, the CC50 is the concentration that lowers cell viability or growth by half. Low values mean harm at low concentration, high ones better tolerance by the cells. The logD is the decadic logarithm of the distribution of all forms, ionised or not, between an organic phase and buffer at a given pH. Higher therefore signals higher lipophilicity.

This note sets out measurements from ChEMBL document CHEMBL5512633, “Hit-to-lead optimization of 2-aminoquinazolines as anti-microbial agents against Leishmania donovani” (Eur J Med Chem, 2024).

Each structure is given as a SMILES string. Bounds are passed on as bounds.

One data set has as its system Leishmania donovani. Briefly: Antileishmanial activity against Leishmania donovani MHOM/IN/1983/AG83 axenic amastigotes assessed as inhibition of growth incubated for 48 hrs by flow cytometric analysis. It is filed as functional, organism-based. The conditions noted are these: MHOM/IN/1983/AG83, 48 h. (In flow cytometry, cells or beads pass a laser one at a time.)
Data set [1] in a line: Metabolic stability in mouse liver microsomes assessed as half-life preincubated for 10 mins and measured after 60 mins by LC-MS/MS analysis. The class given is ADME, Microsome.
A short description of data set [2]: Stability in human plasma assessed as compound remaining measured after 2 hrs by LC-MS/MS analysis. The note with it: read-out: Stability. The class given is ADME, cell-free.
Data set [3] can be described thus: Cytotoxicity against human THP-1 cells incubated for 72 hrs by DAPI staining based analysis. It is filed as toxicity, cell-based.
The nature of data set [4]: Lipophilicity, logD of compound in 1-octanol and phosphate buffer at pH 7.4 by HPLC-UV analysis. It is filed as physicochemical. The conditions noted are these: 1-octanol/phosphate buffer.
Data set [5] can be described thus: Metabolic stability in human liver microsomes assessed as half-life preincubated for 10 mins and measured after 60 mins by LC-MS/MS analysis. It is filed as ADME, Microsome. On the technique in general: Liver microsomes are vesicles of endoplasmic reticulum, rich in cytochrome P450 enzymes.
Data set [6] can be described thus: Metabolic stability in mouse liver microsomes assessed as hepatic blood flow preincubated for 10 mins and measured after 60 mins by LC-MS/MS analysis. It is filed as ADME, Microsome. The note with it: read-out: QH.
Data set [7] in a line: Metabolic stability in human liver microsomes assessed as hepatic blood flow preincubated for 10 mins and measured after 60 mins by LC-MS/MS analysis. The class given is ADME, Microsome. The note with it: read-out: QH.
Data set [8] is described as follows: Stability in mouse plasma assessed as compound remaining measured after 2 hrs by LC-MS/MS analysis. The class given is ADME, cell-free. The conditions noted are these: read-out: Stability.

As to `COc1cc2c(N(C)C)nc(NCc3ccc(Br)cc3)nc2cc1OC1CCNC1` (stereo not given), in the data set on Leishmania donovani, the IC50 was found to be 3.26 µM.
Turning to `CNc1nc(NCc2ccc(F)cc2)nc2cc(OC3CCCC3)c(OC)cc12`, the half-life was found to be 9.1 min in data set [1] and 11.4 min in [5]. The remaining at 2 h came out at 73.2% in data set [2] and 88.9% in [8]. In addition, the IC50 with Leishmania donovani turned out to be 1.55 µM. Moreover, the 50% cytotoxic concentration (CC50) at 72 h in data set [3] amounted to 2.29 µM. Further, the pH-dependent lipophilicity (logD) in [4] was 2.22. Moreover, the figures for the hepatic extraction ratio at 1 h in [6] and in [7] were 0.674 and 0.738, respectively.
On to `COc1cc2c(N3CCCCC3)nc(NC(=O)c3ccc(Cl)cc3)nc2cc1OC1CCCC1`, for which the concentration for half-maximal inhibition (IC50) in the data set on Leishmania donovani came out at 16.6 µM. Also, in data set [3], the half-maximal cytotoxic concentration (CC50) at 72 h is 7.58 µM.
On the same counts, the results for `COc1cc2c(N3CCCCC3)nc(NCc3ccccc3)nc2cc1OCc1ccccc1` are 9.54 µM and greater than 100 µM.
As to `COc1cc2c(N3CCCCC3)nc(Nc3ccc(Cl)cc3)nc2cc1OC1CCCC1`, the concentration for half-maximal inhibition (IC50) with Leishmania donovani stood at 22.7 µM. Besides, in [3], the 50% cytotoxic concentration (CC50) at 72 h turned out to be 37.5 µM.
On the same counts, the results for `COc1cc2c(N3CCCCC3)nc(N)nc2cc1OC1CCCC1` are 19.4 µM and greater than 100 µM.
On to `COc1cc2c(N3CCCCC3)nc(NCc3ccc(F)cc3)nc2cc1OC1CCCC1`, for which the half-life in [1] is 13 min; in data set [5], 12.4 min. For the same molecule, the remaining at 2 h in data set [2] turned out to be 105%; in data set [8], 96.9%. Besides, the IC50 with Leishmania donovani was found to be 10.2 µM. The molecule further came in with a CC50 at 72 h in [3] of 46.5 µM. This molecule displayed a logD in [4] of 2.64. For the same molecule, the hepatic extraction ratio at 1 h was 0.592 in data set [6] and 0.722 in data set [7].
On to `COc1cc2c(N3CCCCC3)nc(NCc3ccccc3)nc2cc1OC1CCCC1`, for which the half-life in [1] is 19.2 min; in data set [5] it was 20.8 min. Besides, the remaining at 2 h in [2] was 93.7%; in [8], 88.7%. Besides, in the data set on Leishmania donovani, the half-maximal inhibitory concentration (IC50) came to 7.49 µM. Moreover, the CC50 at 72 h in [3] was determined as 4.13 µM. The logD in data set [4] is 2.59. In addition, the hepatic extraction ratio at 1 h in data set [6] turned out to be 0.496; in data set [7] it was 0.607.
`COc1ccc(CNc2nc(N3CCCCC3)c3cc(OC)c(O)cc3n2)cc1`: in the data set with Leishmania donovani, the concentration for half-maximal inhibition (IC50) stood at 12.3 µM. For the same molecule, the half-maximal cytotoxic concentration (CC50) at 72 h in [3] was greater than 50 µM.
In the same order, the values of `COc1cc2c(N3CCCCC3)nc(N(C)Cc3ccc(Br)cc3)nc2cc1OC1CCCC1` are 54 µM and 34.4 µM.
For `COc1cc2c(N3CCCCC3)nc(NCc3ccccc3)nc2cc1O`, the IC50 in the data set with Leishmania donovani is 11.3 µM. Further, the midpoint of cytotoxicity in data set [3], the CC50 at 72 h, lay at 30.2 µM.
For the molecule `COc1cc2c(N3CCCCC3)nc(NCc3ccc(F)cc3)nc2cc1O`, in the data set with Leishmania donovani, the IC50 is 12.2 µM. In data set [3], this molecule came in with a CC50 at 72 h of 28.2 µM.
On to `COc1cc2c(N3CCCCC3)nc(NCC3CCCCC3)nc2cc1OC1CCCC1`, for which the half-life in data set [1] is 16.3 min; in [5], 22.2 min. Besides, the figures for the remaining at 2 h in data set [2] and in [8] were 46% and 99.3%, respectively. Also, the half-maximal inhibitory concentration (IC50) with Leishmania donovani was found to be 4.36 µM. Also, the half-maximal cytotoxic concentration (CC50) at 72 h in data set [3] came to 6.97 µM. In [4], this molecule gave a log distribution coefficient (logD) of 3.34. Besides, the hepatic extraction ratio at 1 h was found to be 0.699 in data set [6] and 0.747 in data set [7].
In the case of `COc1cc2c(N(C)C)nc(NCc3ccc(F)cc3)nc2cc1OC1CCCC1`, the half-life in [1] was 6.9 min; in [5] it was 8.1 min. Besides, the remaining at 2 h in data set [2] came out at 81.2%; in data set [8], 91.6%. In the data set with Leishmania donovani, the half-maximal inhibitory concentration (IC50) is 5.67 µM. For the same molecule, in data set [3], the midpoint of cytotoxicity, the CC50 at 72 h, lay at 3.79 µM. Also, the logD in [4] is 2.46. For the same molecule, the figures for the hepatic extraction ratio at 1 h in data set [6] and in data set [7] were 0.733 and 0.799, respectively.
On to `COc1cc2c(N3CCCCC3)nc(NCc3ccc(Cl)cc3)nc2cc1OC1CCCC1`, for which the figures for the half-life in data set [1] and in data set [5] were 17.5 min and 19.1 min, respectively. In addition, the remaining at 2 h in data set [2] was 103%; in data set [8], 92.2%. For the same molecule, the concentration for half-maximal inhibition (IC50) with Leishmania donovani stood at 8.13 µM. The same molecule showed a CC50 at 72 h in [3] of 12.2 µM. In addition, the logD in data set [4] was 3.14. Also, the hepatic extraction ratio at 1 h was 0.519 in data set [6] and 0.627 in data set [7].
In the case of `COc1cc2c(N3CCCCC3)nc(NCc3ccc(C(F)(F)F)cc3)nc2cc1O`, the IC50 with Leishmania donovani came to 8.91 µM. Moreover, the cytotoxic concentration (CC50) at 72 h in [3] amounted to 27.1 µM.
As to `Clc1ccc(CNc2nc(N3CCCCC3)c3cc4c(cc3n2)OCO4)cc1`, the half-life in data set [1] is 10.8 min; in data set [5], 16 min. Further, the remaining at 2 h in data set [2] was determined as 77.5%; in [8], 97.4%. Also, the concentration for half-maximal inhibition (IC50) in the data set on Leishmania donovani is 13.5 µM. Further, the midpoint of cytotoxicity in data set [3], the CC50 at 72 h, lay at 13.8 µM. The molecule also registered a logD in [4] of 2.42. For the same molecule, the hepatic extraction ratio at 1 h in [6] came to 0.637; in data set [7] it was 0.668.
For the molecule `COc1cc2c(N3CCCCC3)nc(NCc3ccc(F)cc3)nc2cc1OCc1ccccc1`, in the data set with Leishmania donovani, the IC50 was 10.5 µM. In [3], this molecule gave a cytotoxic concentration (CC50) at 72 h of 26.9 µM.
Turning to `COc1cc2c(N3CCCCC3)nc(NCc3ccc(C(C)(C)C)cc3)nc2cc1OC1CCCC1`, the values for the half-life in data set [1] and in data set [5] were 22.8 min and 117 min, respectively. Moreover, the remaining at 2 h in data set [2] was determined as 63%; in [8], 44%. Further, the IC50 in the data set with Leishmania donovani amounted to 4.93 µM. The 50% cytotoxic concentration (CC50) at 72 h in data set [3] is 2.63 µM. In addition, the logD in data set [4] worked out at 3.66. The hepatic extraction ratio at 1 h in data set [6] turned out to be 0.454; in data set [7], 0.216.
For `O=c1c(O)c(-c2ccc(O)c(O)c2)oc2cc(O)cc(O)c12` [QUERCETIN], the logD in data set [4] was 2.5.
`COc1cc2c(N3CCCCC3)nc(NCc3ccc(C)cc3)nc2cc1OC1CCCC1`: in the data set with Leishmania donovani, the IC50 was 5.32 µM. Also, in data set [3], it took 3.49 µM to reach half-maximal cytotoxicity (CC50 at 72 h).
On the same counts, the results for `COc1cc2c(N3CCCCC3)nc(NC3CCCCC3)nc2cc1OC1CCCC1` are 3.28 µM and 10.2 µM.
With `COc1ccc(CNc2nc(N3CCCCC3)c3cc(OC)c(OCc4ccccc4)cc3n2)cc1`, the half-life in data set [1] worked out at 15.5 min; in data set [5], 32.2 min. Further, the values for the remaining at 2 h in data set [2] and in data set [8] were 70.2% and 106%, respectively. In the data set on Leishmania donovani, the IC50 is 10.3 µM. In [3], the 50% cytotoxic concentration (CC50) at 72 h is 19.5 µM. This molecule showed a pH-dependent lipophilicity (logD) in [4] of 2.39. For the same molecule, the hepatic extraction ratio at 1 h in [6] is 0.548; in data set [7], 0.499.
Take `COc1cc2c(N3CCCCC3)nc(N)nc2cc1OCc1ccccc1`: in the data set on Leishmania donovani, the 50% inhibitory concentration (IC50) amounted to 12 µM. In data set [3], this molecule registered a CC50 at 72 h of 15.4 µM.
In the same order, the values of `COc1cc2c(N3CCCCC3)nc(N(C)Cc3ccc(Cl)cc3)nc2cc1OC1CCCC1` are 10.2 µM and greater than 50 µM.
As to `COc1cc2c(N(C)C)nc(NCc3ccc(Br)cc3)nc2cc1O`, the IC50 in the data set on Leishmania donovani worked out at 4.78 µM.
`COc1ccc(CNc2nc(N3CCCCC3)c3cc(OC)c(OC4CCCC4)cc3n2)cc1`: the 50% inhibitory concentration (IC50) with Leishmania donovani was found to be 16.6 µM. This molecule also came in with a CC50 at 72 h in [3] of 4.56 µM.
In the same order, the values of `COc1cc2nc(NCc3ccc(F)cc3)nc(N3CCCCC3)c2cc1OC` are 13.7 µM and 11.1 µM.
For the molecule `CC(C)[N+](C)(CCOC(=O)C1c2ccccc2Oc2ccccc21)C(C)C` [PROPANTHELINE], the results for the remaining at 2 h in data set [2] and in data set [8] were 1.2% and 37.2%, respectively.
On to `COc1cc2c(N3CCCCC3)nc(NCc3ccc([N+](=O)[O-])cc3)nc2cc1OC1CCCC1`, for which the IC50 in the data set with Leishmania donovani came to 9.63 µM. In data set [3], this molecule showed a CC50 at 72 h of 5.68 µM.
